Data: ChEMBL document CHEMBL1671654, “In vivo activity of the pyrrolopyrazolyl-substituted oxazolidinone RWJ-416457” (Antimicrob Agents Chemother, 2009)
Activity calls are given as the source filed them. The rule behind the calls is not given here.

How the values were obtained:
Mus musculus [1] = experiment: fCmax in CF-1 mouse at 10 mg/kg, sc; format: ADME, organism-based; set-up: dose 10 mg/kg, route subcutaneous; conditions: in vivo
[2] = Clearance in CF-1 mouse at 2 mg/kg, iv; format: ADME, organism-based; set-up: dose 2 mg/kg, route intravenous; conditions: in vivo
Mus musculus [3] = experiment: fAUC (0 to 24 hrs) in CF-1 mouse at 10 mg/kg, po; format: ADME, organism-based; set-up: dose 10 mg/kg, route oral; conditions: in vivo
[4] = Apparent oral clearance in CF-1 mouse at 10 mg/kg, po; format: ADME, organism-based; set-up: dose 10 mg/kg, route oral; conditions: in vivo
Staphylococcus aureus [5] = experiment: Bacteriostatic activity against methicillin-susceptible Staphylococcus aureus Smith ATCC 13709 infected in SKH1 mouse upto 320 mg/kg/day, po administered post infection measured after 48 hrs; format: functional, organism-based
[6] = Ratio of fAUC (24 hrs) for community-associated methicillin-resistant Staphylococcus aureus OC8525 infected sc dosed mouse to MIC for community-associated methicillin-resistant Staphylococcus aureus OC8525; format: functional
Staphylococcus aureus [7] = experiment: Antibacterial activity against community-associated methicillin-resistant Staphylococcus aureus OC8525 infected in iv dosed Swiss Webster mouse administered at 1 to 3 hrs post infection measured after 3 days; format: functional
Staphylococcus aureus [8] = experiment: Antibacterial activity against community-associated methicillin-resistant Staphylococcus aureus OC8525 infected in sc dosed Swiss Webster mouse administered at 1 to 3 hrs post infection measured after 3 days; format: functional
[9] = Tmax in CF-1 mouse serum at 10 mg/kg, po; format: ADME, organism-based; set-up: dose 10 mg/kg, route oral
[10] = Ratio of fAUC (24 hrs) for Methicillin-susceptible Staphylococcus aureus ATCC 13709 infected sc dosed mouse to MIC for Methicillin-susceptible Staphylococcus aureus ATCC 1370; format: functional
[11] = Cmax in CF-1 mouse at 2 mg/kg, iv; format: ADME, organism-based; set-up: dose 2 mg/kg, route intravenous; conditions: in vivo
[12] = Ratio of fAUC (24 hrs) for community-associated methicillin-resistant Staphylococcus aureus OC8525 infected iv dosed mouse to MIC for community-associated methicillin-resistant Staphylococcus aureus OC8525; format: functional
[13] = Tmax in CF-1 mouse serum at 10 mg/kg, sc; format: ADME, organism-based; set-up: dose 10 mg/kg, route subcutaneous
[14] = Ratio of fAUC (24 hrs) for penicillin-susceptible Streptococcus pneumoniae ATCC 6301 infected po dosed mouse to MIC for penicillin-susceptible Streptococcus pneumoniae ATCC 6301; format: functional
Streptococcus pneumoniae [15] = experiment: Antibacterial activity against penicillin-susceptible Streptococcus pneumoniae ATCC 6301 infected in po dosed Swiss Webster mouse administered at 1 to 3 hrs post infection measured after 3 days; format: functional; conditions: ATCC 6301, po
Staphylococcus aureus [16] = experiment: Antibacterial activity against community-associated methicillin-resistant Staphylococcus aureus OC8525 infected in po dosed Swiss Webster mouse administered at 1 to 3 hrs post infection measured after 3 days; format: functional
[17] = Ratio of fAUC (24 hrs) for penicillin-susceptible Streptococcus pneumoniae ATCC 6301 infected iv dosed mouse to MIC for penicillin-susceptible Streptococcus pneumoniae ATCC 6301; format: functional
[18] = Half life in CF-1 mouse at 10 mg/kg, po; format: ADME, organism-based; set-up: dose 10 mg/kg, route oral; conditions: in vivo
[19] = Ratio of fAUC (24 hrs) for Methicillin-susceptible Staphylococcus aureus ATCC 13709 infected iv dosed mouse to MIC for Methicillin-susceptible Staphylococcus aureus ATCC 1370; format: functional
[20] = AUC (0 to 24 hrs) in CF-1 mouse at 10 mg/kg, po; format: ADME, organism-based; set-up: time < 24 hr, dose 10 mg/kg, route oral; conditions: plasma
Mus musculus [21] = experiment: fCmax in CF-1 mouse at 2 mg/kg, iv; format: ADME, organism-based; set-up: dose 2 mg/kg, route intravenous; conditions: in vivo
Mus musculus [22] = experiment: fAUC (0 to 24 hrs) in CF-1 mouse at 2 mg/kg, iv; format: ADME, organism-based; set-up: dose 2 mg/kg, route intravenous; conditions: in vivo
[23] = Half life in CF-1 mouse at 10 mg/kg, sc; format: ADME, organism-based; set-up: dose 10 mg/kg, route subcutaneous; conditions: in vivo
[24] = Cmax in CF-1 mouse at 10 mg/kg, sc; format: ADME, organism-based; set-up: dose 10 mg/kg, route subcutaneous; conditions: in vivo
[25] = Ratio of fAUC (24 hrs) for Methicillin-susceptible Staphylococcus aureus ATCC 13709 infected po dosed mouse to MIC for Methicillin-susceptible Staphylococcus aureus ATCC 1370; format: functional
[26] = Ratio of fAUC (24 hrs) for penicillin-susceptible Streptococcus pneumoniae ATCC 6301 infected sc dosed mouse to MIC for penicillin-susceptible Streptococcus pneumoniae ATCC 6301; format: functional
[27] = AUC (0 to 24 hrs) in CF-1 mouse at 10 mg/kg, sc; format: ADME, organism-based; set-up: time < 24 hr, dose 10 mg/kg, route subcutaneous; conditions: plasma
Staphylococcus aureus [28] = experiment: Antibacterial activity against methicillin-susceptible Staphylococcus aureus ATCC 13709 infected in po dosed Swiss Webster mouse administered at 1 to 3 hrs post infection measured after 3 days; format: functional; conditions: ATCC 13709, po
Streptococcus pneumoniae [29] = experiment: Antibacterial activity against penicillin-susceptible Streptococcus pneumoniae ATCC 6301 infected in po dosed CF-1 mouse administered at 24 hrs post infection measured after 48 hrs relative to Linezolid; format: functional; conditions: Streptococcus pneumoniae, ATCC 6301, po
Staphylococcus aureus [30] = experiment: Antibacterial activity against methicillin-susceptible Staphylococcus aureus ATCC 13709 infected in sc dosed Swiss Webster mouse administered at 1 to 3 hrs post infection measured after 3 days; format: functional; conditions: ATCC 13709, sc
Mus musculus [31] = experiment: fAUC (0 to 24 hrs) in CF-1 mouse at 10 mg/kg, sc; format: ADME, organism-based; set-up: dose 10 mg/kg, route subcutaneous; conditions: in vivo
Streptococcus pneumoniae [32] = experiment: Antibacterial activity against penicillin-susceptible Streptococcus pneumoniae ATCC 6301 infected in sc dosed Swiss Webster mouse administered at 1 to 3 hrs post infection measured after 3 days; format: functional; conditions: ATCC 6301, sc
Staphylococcus aureus [33] = experiment: Antibacterial activity against methicillin-susceptible Staphylococcus aureus ATCC 13709 infected in iv dosed Swiss Webster mouse administered at 1 to 3 hrs post infection measured after 3 days; format: functional; conditions: ATCC 13709, iv
Streptococcus pneumoniae [34] = experiment: Antibacterial activity against penicillin-susceptible Streptococcus pneumoniae ATCC 6301 infected in iv dosed Swiss Webster mouse administered at 1 to 3 hrs post infection measured after 3 days; format: functional; conditions: ATCC 6301, iv
[35] = Half life in CF-1 mouse at 2 mg/kg, iv; format: ADME, organism-based; set-up: dose 2 mg/kg, route intravenous; conditions: in vivo
[36] = AUC (0 to 24 hrs) in CF-1 mouse at 2 mg/kg, iv; format: ADME, organism-based; set-up: time < 24 hr, dose 2 mg/kg, route intravenous; conditions: plasma
[37] = Ratio of fAUC (24 hrs) for community-associated methicillin-resistant Staphylococcus aureus OC8525 infected po dosed mouse to MIC for community-associated methicillin-resistant Staphylococcus aureus OC8525; format: functional
[38] = Cmax in CF-1 mouse at 10 mg/kg, po; format: ADME, organism-based; set-up: dose 10 mg/kg, route oral; conditions: in vivo
[39] = Apparent oral clearance in CF-1 mouse at 10 mg/kg, sc; format: ADME, organism-based; set-up: dose 10 mg/kg, route oral; conditions: in vivo
Mus musculus [40] = experiment: fCmax in CF-1 mouse at 10 mg/kg, po; format: ADME, organism-based; set-up: dose 10 mg/kg, route oral; conditions: in vivo

With `CC(=O)NC[C@H]1CN(c2ccc(N3CCOCC3)c(F)c2)C(=O)O1` [LINEZOLID] the fCmax (Mus musculus [1]) was 7.1 µg/mL, the clearance [2] was 15.7 mL/min/kg and the fAUC (Mus musculus [3]) was 13000 ng·h/mL. For the same compound, the CL/F [4] was 8.67 mL/min/kg, the Activity (Staphylococcus aureus [5]) was “Active” and the fAUC/MIC [6] was 2.6. It also gave an ED50 (Staphylococcus aureus [7]) of 8.5 mg/kg/day, an ED50 (Staphylococcus aureus [8]) of 3.7 mg/kg/day and a Tmax [9] of no more than 7.8 min. For the same compound, the fAUC/MIC [10] was 5.3, the Cmax [11] was 3300 ng/mL and the fAUC/MIC [12] was 1.8. It also gave a Tmax [13] of no more than 7.8 min, a fAUC/MIC [14] of 6.6 and an ED50 (Streptococcus pneumoniae [15]) of 14 mg/kg/day. The ED50 (Staphylococcus aureus [16]) was 5.1 mg/kg/day, the fAUC/MIC [17] was 3.6 and the half-life [18] was 84 min. The fAUC/MIC [19] was 3.6, the AUC(0-t) at 24 h [20] was 19000 ng·h/mL and the fCmax (Mus musculus [21]) was 2.3 µg/mL. The fAUC (Mus musculus [22]) was 1400 ng·h/mL, the half-life [23] was 48 min and the Cmax [24] was 11000 ng/mL. For the same compound, the fAUC/MIC [25] was 6.6, the fAUC/MIC [26] was 5.3 and the AUC(0-t) at 24 h [27] was 16000 ng·h/mL. It also gave an ED50 (Staphylococcus aureus [28]) of 6.4 mg/kg/day, an ED50 (Streptococcus pneumoniae [29]) of no less than 14 mg/kg/day and an ED50 (Staphylococcus aureus [30]) of 7 mg/kg/day. For the same compound, the fAUC (Mus musculus [31]) was 11000 ng·h/mL, the ED50 (Streptococcus pneumoniae [32]) was 20 mg/kg/day and the ED50 (Staphylococcus aureus [33]) was 6.3 mg/kg/day. The ED50 (Streptococcus pneumoniae [34]) was greater than 40 mg/kg/day, the half-life [35] was 30 min and the AUC(0-t) at 24 h [36] was 2100 ng·h/mL. The fAUC/MIC [37] was 3.3, the Cmax [38] was 8900 ng/mL and the CL/F [39] was 10.7 mL/min/kg. The fCmax (Mus musculus [40]) was 6 µg/mL.
